For data set [1], the system named is luciferase reporter encoding miRNA sponge. Briefly: Luciferase assay validating miRNA sponges in Neuro 2a cells. As to conditions: pGIPZ vector encoding the miRNA vs control pGIPZ. The format is cell-based, mouse. An excerpt:
FIGS. 13A-13B. Validation of the miRNA Sponges, Related to FIGS. 6A-6H. (FIG. 13A) Luciferase activity measured in Neuro 2a cells transfected with luciferase reporter vector alone, luciferase reporter vector encoding miR-382-3p sponges (two-tailed Student's t-test; t4=1.62, p=0.18) containing two (t4=23.00, *p<0.001), four (t4=24.35, *p<0.001), or six (t4=9.17, *p<0.001) miRNA-binding sites or scrambled sites (t4=2.36, p=0.08) in the presence of control pGIPZ vector or pGIPZ vector encoding miR-382-3p. Based on these experiments, the miR-382-3p sponge with six seed sites was chosen for in vivo experiments. (FIG. 13B) Luciferase activity in Neuro2a cells transfected with luciferase reporter vector alone, luciferase reporter vector encoding miR-674-3p sponges (t4=14.13, *p<0.001) containing two (t4=14.25, *p<0.001), four (t4=80.70, *p<0.001), or six miRNA-binding sites (t4=26.67, *p<0.001), or scrambled (t4=1.11, p=0.33) sites in the presence of control pGIPZ vector or pGIPZ vector encoding miR-674-3p. Data are shown as the mean±S.E.M.
Generation of miRNA Sponge Constructs. The miR-382-3p and miR-674-3p sponges were generated as described previously (Chun et al., 2017). […]

Another data set deals with T1, Drd1 (Mus musculus, UniProt Q61616).
T1 construct: coronal brain sections (300-μm) were collected in L-15 Leibovitz media; from tissue; host or cells: acute coronal mouse brain slices (300 µm); ciliated ependymal cells of the lateral ventricle wall; WT and Dgcr8+/- mice
T1 sequence (Q61616 whole entry): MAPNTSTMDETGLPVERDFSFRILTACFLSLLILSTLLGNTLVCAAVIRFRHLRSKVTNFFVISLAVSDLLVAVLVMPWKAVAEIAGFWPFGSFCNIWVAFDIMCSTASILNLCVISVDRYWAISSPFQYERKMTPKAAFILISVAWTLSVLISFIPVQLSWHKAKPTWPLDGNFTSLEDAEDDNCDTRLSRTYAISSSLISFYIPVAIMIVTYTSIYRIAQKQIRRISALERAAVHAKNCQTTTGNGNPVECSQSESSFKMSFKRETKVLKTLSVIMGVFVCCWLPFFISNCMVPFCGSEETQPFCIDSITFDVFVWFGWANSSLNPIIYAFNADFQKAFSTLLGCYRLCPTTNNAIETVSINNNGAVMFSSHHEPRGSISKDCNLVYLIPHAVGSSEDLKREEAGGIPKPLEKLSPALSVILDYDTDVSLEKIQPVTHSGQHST
The experiment in a line: Ex vivo ciliary beating frequency (CBF) in brain slices, Drd1 agonist/antagonist bath-applied. The format is cell-based. The settings on record: SKF81297 10 μM bath-applied, slices from 4- to 5-month-old WT mice, vs vehicle (DMSO).

Procedure for Drd1: Ex Vivo Ciliary Beating Frequency Measurements. For ex vivo measurement of CBF, coronal brain sections (300-μm) were collected in L-15 Leibovitz media (Thermo Fisher Scientific) and placed in 37° C., 95%/5% O2/CO2 chamber. Image sequences of CBF were acquired by linescan analysis using an LD C-Apochromat 40× objective water-immersion lens (1.1 NA) in LSM780 confocal microscope (Zeiss AxioObserver). Slices were scanned through a line perpendicular to the axis of the cilia in the Xt mode along this line with an acquisition rate of 529 frames/second (512×1 frame size, 1.89-ms scan time, 5,000 cycles). Transmitted DIC and fluorescence emitted by GFP or Alexa Fluor 488 were collected with a 488- to 568-nm bandpass filter. Fluorescence excitation and transmitted illumination were provided by a 488-nm argon gas laser. The Drd1 agonist (SKF81297, 10 μM; Tocris, Minneapolis, MN) and antagonist (SCH23390, 10 μM; Tocris) were bath-applied once per slice. Five minutes after the agonist or antagonist was applied, the CBF was measured.

Consider “miR-674-3p: mature mouse miRNA CACAGCUCCCAUCUCAGAACAA (SEQ ID NO: 3); in FIG. 13 expressed from pGIPZ vector (listed as Mus musculus)”, for which the “inhibition of reporters containing the sponge sequence (luciferase activity)” value in data set [1] is given as “effectively inhibited reporters containing the sponge sequence in vitro”. For the molecule `Oc1cc2c(c(Cl)c1O)CCNCC2c1ccccc1` (centres unmarked) [SKF81297], the “ependymal CBF” value at Drd1 is given as “slowed ependymal CBF compared to vehicle treatment”.

Values taken from patent US12680102B2, “miRNAS for reducing ventricle enlargement” (St. Jude Children's Research Hospital, Inc., priority 2019, dated 2026).
